Test system: Hepal-6 hepatoma cells
Assay: Tumor growth inhibition rate in mouse model (Hepal-6 hepatoma cells transplanted into C57BL/6 mice)
Type: in vivo, mice (C57BL/6)
Protocol: (E)-N1-(3-(dimethylamino)propyl)-N8-hydroxy-2-((naphthalen-1-yloxy)methyl)-2-octenediamide phosphate (CG-745, CAS No. 2173017-02-0) was used as the alkylcarbamoyl naphthalenyloxy octenoyl hydroxyamide compound, and BP0146 (BioXcell, West Lebanon, N.H., USA) was used as the anti-PD-1 antibody.
1×10^6 Hepal-6 hepatoma cells were injected into the left flank of 6-week-old C57BL6 mice. After 5 days, they were separated into 4 groups for administration of the vehicle, CG-745 alone, the anti-PD-1 antibody alone, or a combination of CG-745 and the anti-PD-1 antibody. The tumor volume was defined as (long axis)×(short axis)^2×0.5. […] Vehicle, CG-745, and the anti-PD-1 antibody were administered intraperitoneally (I.P). CG-745 was administered at a dose of 20 mg/kg for 5 consecutive days followed by 2 days of rest (1 treatment cycle) and the treatment cycle was repeated 3 times. The anti-PD-1 antibody was administered once at a dose of 5 mg/kg together with CG-745 on the fifth day of the first treatment cycle of CG-745.
The average inhibition rate of tumor growth for 9 mice is shown in FIG. 1, and the results for each of 9 mice are shown in FIG. 2.

Q: For `CN(C)CCCNC(=O)/C(=C/CCCCC(=O)NO)COc1cccc2ccccc12.O=P(O)(O)O` [Comparative Example 1, (E)-N1-(3-(dimethylamino)propyl)-N8-hydroxy-2-((naphthalen-1-yloxy)methyl)-2-octenediamide phosphate], which “tumor growth inhibition rate” value (Day 32, average of 9 mice, CG-745 20 mg/kg I.P. 5 days on/2 days off x 3 cycles, anti-PD-1 antibody 5 mg/kg I.P. once) is on record?
A: The value was 73.8%.

Q: What about the “number of mice in which the tumor disappeared” value (of 9 mice per group, same dosing as the tumor growth inhibition rate) of the same molecule?
A: The value was 4 mice.

From patent US20220287993A1, “PHARMACEUTICAL COMPOSITION COMPRISING HDAC INHIBITOR AND ANTI-PD1 ANTIBODY OR ANTI PD-L1 ANTIBODY” (CRYSTALGENOMICS, INC., priority 2019, published 2022)
